Experimental data as given in ChEMBL document CHEMBL1133972, “Solid-Phase synthesis of a library constructed of aromatic phosphate, long alkyl chains and tryptophane components, and identification of potent dipeptide telomerase inhibitors” (Bioorg Med Chem Lett, 2001).

target: Telomerase reverse transcriptase (Homo sapiens, UniProt O14746); experiment: Inhibitory activity against telomerase extracted from HCT 116 cell lines; type: cell-free
Sequence (O14746 whole entry): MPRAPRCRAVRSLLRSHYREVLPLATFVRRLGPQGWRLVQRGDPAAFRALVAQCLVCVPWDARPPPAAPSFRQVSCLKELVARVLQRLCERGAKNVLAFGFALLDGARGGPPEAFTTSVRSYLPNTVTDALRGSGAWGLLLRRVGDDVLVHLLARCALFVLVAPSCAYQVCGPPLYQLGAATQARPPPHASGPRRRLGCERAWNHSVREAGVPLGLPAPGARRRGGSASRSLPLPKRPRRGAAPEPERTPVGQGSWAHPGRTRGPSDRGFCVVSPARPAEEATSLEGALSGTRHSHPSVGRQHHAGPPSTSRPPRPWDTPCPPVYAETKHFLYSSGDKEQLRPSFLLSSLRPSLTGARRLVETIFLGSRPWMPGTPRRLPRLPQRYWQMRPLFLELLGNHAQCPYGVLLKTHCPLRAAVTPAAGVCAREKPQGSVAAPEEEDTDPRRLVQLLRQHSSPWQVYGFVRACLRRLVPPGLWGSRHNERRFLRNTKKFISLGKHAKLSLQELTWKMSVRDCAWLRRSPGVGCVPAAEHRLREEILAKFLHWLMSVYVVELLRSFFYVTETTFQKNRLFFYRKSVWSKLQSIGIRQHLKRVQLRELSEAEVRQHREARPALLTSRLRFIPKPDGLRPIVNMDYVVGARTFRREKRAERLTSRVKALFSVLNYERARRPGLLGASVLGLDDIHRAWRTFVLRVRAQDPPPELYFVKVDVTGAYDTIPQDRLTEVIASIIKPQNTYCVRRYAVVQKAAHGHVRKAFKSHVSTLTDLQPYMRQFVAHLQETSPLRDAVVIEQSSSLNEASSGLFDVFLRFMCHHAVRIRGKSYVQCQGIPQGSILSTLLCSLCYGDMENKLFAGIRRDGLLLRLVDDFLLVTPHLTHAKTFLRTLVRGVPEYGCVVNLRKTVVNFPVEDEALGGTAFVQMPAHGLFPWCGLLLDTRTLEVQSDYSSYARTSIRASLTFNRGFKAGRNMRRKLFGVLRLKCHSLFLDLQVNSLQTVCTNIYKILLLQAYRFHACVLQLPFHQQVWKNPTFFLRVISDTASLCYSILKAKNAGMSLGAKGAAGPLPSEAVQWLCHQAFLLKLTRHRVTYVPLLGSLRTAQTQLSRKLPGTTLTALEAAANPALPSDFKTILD

Compared with `N[C@H](Cc1c[nH]c2ccccc12)C(=O)NCCCCCCCCCCCCOP(=O)(O)Oc1ccccc1Cl`, `N[C@@H](Cc1c[nH]c2ccccc12)C(=O)NCCCCCCCCCCCCOP(=O)(O)Oc1ccccc1Cl` is 3-fold lower in IC50: 45.2 µM for the first, 15.1 µM for the second. The second is the more potent here.

`CC(C)(C)OC(=O)N[C@H](Cc1cc2ccccc2[nH]1)C(=O)N[C@H](Cc1c[nH]c2ccccc12)C(=O)NCCCC(=O)NCC(=O)NCCCCCCOP(=O)(O)Oc1ccccc1Cl` and `CC(C)(C)OC(=O)N[C@@H](Cc1cc2ccccc2[nH]1)C(=O)N[C@@H](Cc1c[nH]c2ccccc12)C(=O)NCCCC(=O)NCC(=O)NCCCCCCOP(=O)(O)Oc1ccccc1Cl` cannot be ordered by IC50: over 100 µM for the first, over 100 µM for the second.

Going from `Cc1cn(CCCn2cc(CC(=O)NCCCCCCOP(=O)(O)Oc3ccccc3Cl)c3ccccc32)c2ccccc12` to `Cc1cn(CCCn2cc(CC(=O)NCCCCCCCCCCCCOP(=O)(O)Oc3ccccc3Cl)c3ccccc32)c2ccccc12`, the IC50 falls from 29.4 µM to 3.6 µM (8.2-fold). The second is the more potent here.

First: O=C(N[C@H](Cc1c[nH]c2ccccc12)C(=O)NCCCCCCCCCCCCOP(=O)(O)Oc1ccccc1Cl)[C@H]1CCCN1
Second: CC(=O)N[C@H](Cc1c[nH]c2ccccc12)C(=O)NCCCCCCCCCCCCOP(=O)(O)Oc1ccccc1Cl
The IC50 of the first is higher: over 100 µM for the first, 90.7 µM for the second.

`N[C@H](CCC(=O)O)C(=O)N[C@H](Cc1c[nH]c2ccccc12)C(=O)NCCCCCCCCCCCCOP(=O)(O)Oc1ccccc1Cl` and `CC(C)(C)OC(=O)N[C@H](CCC(=O)O)C(=O)N[C@H](Cc1c[nH]c2ccccc12)C(=O)NCCCCCCCCCCCCOP(=O)(O)Oc1ccccc1Cl` cannot be ordered by IC50: over 100 µM for the first, over 100 µM for the second.

`O=C(CCCc1c[nH]c2ccccc12)NCCCCCCCCCCCCOP(=O)(O)Oc1ccccc1Cl` and `O=C(Cc1c[nH]c2ccccc12)NCCCCCCCCCCCCOP(=O)(O)Oc1ccccc1Cl` are within 1.5-fold of each other in IC50: 29.7 µM for the first, 33.9 µM for the second.

`N[C@H](Cc1c[nH]c2ccccc12)C(=O)NCCCCCCOP(=O)(O)Oc1ccccc1Cl` and `CC(C)(C)OC(=O)N[C@H](Cc1c[nH]c2ccccc12)C(=O)NCCCCCCOP(=O)(O)Oc1ccccc1Cl` cannot be ordered by IC50: over 100 µM for the first, over 100 µM for the second.

Going from `CC(C)(C)OC(=O)N[C@H](Cc1ccccc1)C(=O)N[C@H](Cc1c[nH]c2ccccc12)C(=O)NCCCCCCCCCCCCOP(=O)(O)Oc1ccccc1Cl` to `CC(C)(C)OC(=O)N[C@@H](Cc1ccccc1)C(=O)N[C@H](Cc1c[nH]c2ccccc12)C(=O)NCCCCCCCCCCCCOP(=O)(O)Oc1ccccc1Cl`, the IC50 rises from 6.8 µM to over 100 µM. The first is the more potent here.

Compared with `O=C(N[C@H](Cc1c[nH]c2ccccc12)C(=O)NCCCCCCCCCCCCOP(=O)(O)Oc1ccccc1Cl)c1ccccc1`, `O=C(N[C@H](Cc1c[nH]c2ccccc12)C(=O)NCCCCCCCCCCCCOP(=O)(O)Oc1ccccc1Cl)OCc1ccccc1` is 2-fold lower in IC50: 7.3 µM for the first, 3.6 µM for the second. The second is the more potent here.

Going from `Cc1cn(CCCn2cc(CC(=O)NCCCC(=O)NCC(=O)NCCCCCCOP(=O)(O)Oc3ccccc3Cl)c3ccccc32)c2ccccc12` to `Cc1cn(CCCn2cc(CC(=O)NCCCC(=O)N3CCCC3C(=O)NCCCCCCOP(=O)(O)Oc3ccccc3Cl)c3ccccc32)c2ccccc12` (stereo not drawn), the IC50 falls from over 100 µM to 46.9 µM.

`N[C@@H](Cc1cc2ccccc2[nH]1)C(=O)N[C@@H](Cc1c[nH]c2ccccc12)C(=O)NCCCCCCCCCCCCOP(=O)(O)Oc1ccccc1Cl` and `N[C@H](Cc1cc2ccccc2[nH]1)C(=O)N[C@H](Cc1c[nH]c2ccccc12)C(=O)NCCCCCCCCCCCCOP(=O)(O)Oc1ccccc1Cl` are within 1.5-fold of each other in IC50: 11.1 µM for the first, 13.7 µM for the second.

`CC(C)(C)OC(=O)N[C@@H](Cc1cc2ccccc2[nH]1)C(=O)N[C@H](Cc1c[nH]c2ccccc12)C(=O)NCCCC(=O)NCC(=O)NCCCCCCOP(=O)(O)Oc1ccccc1Cl` and `CC(C)(C)OC(=O)N[C@H](Cc1cc2ccccc2[nH]1)C(=O)N[C@@H](Cc1c[nH]c2ccccc12)C(=O)NCCCC(=O)NCC(=O)NCCCCCCOP(=O)(O)Oc1ccccc1Cl` (mixture of isomers) cannot be ordered by IC50: over 100 µM for the first, over 100 µM for the second.

Going from `N[C@H](Cc1ccccc1)C(=O)N[C@H](Cc1c[nH]c2ccccc12)C(=O)NCCCCCCCCCCCCOP(=O)(O)Oc1ccccc1Cl` to `N[C@@H](Cc1ccccc1)C(=O)N[C@H](Cc1c[nH]c2ccccc12)C(=O)NCCCCCCCCCCCCOP(=O)(O)Oc1ccccc1Cl` (mixture of isomers), the IC50 rises from 22.1 µM to over 100 µM. The first is the more potent here.

`Cc1cn(CCCn2cc(CC(=O)NCCOCCOCCOCCOP(=O)(O)Oc3ccccc3Cl)c3ccccc32)c2ccccc12` and `N[C@@H](Cc1cc2ccccc2[nH]1)C(=O)N[C@@H](Cc1c[nH]c2ccccc12)C(=O)NCCCC(=O)NCC(=O)NCCCCCCOP(=O)(O)Oc1ccccc1Cl` cannot be ordered by IC50: over 100 µM for the first, over 100 µM for the second.

Going from `CC(C)(C)OC(=O)N[C@H](Cc1cc2ccccc2[nH]1)C(=O)N[C@H](Cc1c[nH]c2ccccc12)C(=O)NCCCCCCCCCCCCOP(=O)(O)Oc1ccccc1Cl` to `CC(C)(C)OC(=O)N[C@@H](Cc1cc2ccccc2[nH]1)C(=O)N[C@@H](Cc1c[nH]c2ccccc12)C(=O)NCCCCCCCCCCCCOP(=O)(O)Oc1ccccc1Cl`, the IC50 falls from 18.9 µM to 0.3 µM (63-fold).

First: O=C(CNC(=O)OCc1ccccc1)N[C@H](Cc1c[nH]c2ccccc12)C(=O)NCCCCCCCCCCCCOP(=O)(O)Oc1ccccc1Cl
Second: CC(C)(C)OC(=O)N[C@H](CCC(=O)OCc1ccccc1)C(=O)N[C@H](Cc1c[nH]c2ccccc12)C(=O)NCCCCCCCCCCCCOP(=O)(O)Oc1ccccc1Cl
The IC50 of the first is 1.9-fold higher: 12.1 µM for the first, 6.4 µM for the second.

`CC(C)(C)OC(=O)N[C@H](Cc1c[nH]c2ccccc12)C(=O)NCCCCCCCCCCCCOP(=O)(O)Oc1ccccc1Cl` and `CC(C)(C)OC(=O)N[C@@H](Cc1c[nH]c2ccccc12)C(=O)NCCCCCCCCCCCCOP(=O)(O)Oc1ccccc1Cl` are within 1.5-fold of each other in IC50: 18.3 µM for the first, 20.7 µM for the second.

`N[C@@H](Cc1cc2ccccc2[nH]1)C(=O)N[C@H](Cc1c[nH]c2ccccc12)C(=O)NCCCC(=O)NCC(=O)NCCCCCCOP(=O)(O)Oc1ccccc1Cl` and `N[C@H](Cc1cc2ccccc2[nH]1)C(=O)N[C@H](Cc1c[nH]c2ccccc12)C(=O)NCCCC(=O)NCC(=O)NCCCCCCOP(=O)(O)Oc1ccccc1Cl` cannot be ordered by IC50: over 100 µM for the first, over 100 µM for the second.

First: O=C(N[C@H](Cc1ccccc1)C(=O)NCCCCCCCCCCCCOP(=O)(O)Oc1ccccc1Cl)OCc1ccccc1
Second: N[C@H](Cc1cc2ccccc2[nH]1)C(=O)N[C@@H](Cc1c[nH]c2ccccc12)C(=O)NCCCCCCCCCCCCOP(=O)(O)Oc1ccccc1Cl (mixture of isomers)
The IC50 of the first is higher: over 100 µM for the first, 10.6 µM for the second. The second is the more potent here.

Going from `CC(C)(C)OC(=O)N1CCC[C@@H]1C(=O)N[C@H](Cc1c[nH]c2ccccc12)C(=O)NCCCCCCCCCCCCOP(=O)(O)Oc1ccccc1Cl` to `CC(C)(C)OC(=O)N[C@@H](Cc1cc2ccccc2[nH]1)C(=O)N[C@H](Cc1c[nH]c2ccccc12)C(=O)NCCCCCCCCCCCCOP(=O)(O)Oc1ccccc1Cl` (mixture of isomers), the IC50 rises from 9.5 µM to over 100 µM. The first is the more potent here.

Going from `CC(=O)N[C@H](Cc1cc2ccccc2[nH]1)C(=O)N[C@H](Cc1c[nH]c2ccccc12)C(=O)NCCCCCCCCCCCCOP(=O)(O)Oc1ccccc1Cl` to `CC(C)(C)OC(=O)N[C@H](Cc1cc2ccccc2[nH]1)C(=O)N[C@@H](Cc1c[nH]c2ccccc12)C(=O)NCCCCCCCCCCCCOP(=O)(O)Oc1ccccc1Cl` (racemic), the IC50 rises from 22.9 µM to over 100 µM.

`N[C@H](Cc1cc2ccccc2[nH]1)C(=O)N[C@@H](Cc1c[nH]c2ccccc12)C(=O)NCCCC(=O)NCC(=O)NCCCCCCOP(=O)(O)Oc1ccccc1Cl` (racemic) showed an IC50 of over 100 µM.
